Experimental data published in patent US11793782B2, “Therapeutic agents for neurodegenerative diseases” (priority 2017, dated 2023).

Test system: MSA-C patients
Assay: Case studies, multisystemic atrophy cerebellar type (MSA-C) patients
Type: in vivo, human
[1] = MSA-C Patient 3, after 20 days of re-suspending treatment
[2] = MSA-C Patient 3, after 27 days of treatment
[3] = MSA-C Patient 3, shortly after commencing treatment

## CC(=O)NC(CC(C)C)C(=O)O (racemic) [acetyl-DL-leucine]
MSA-C Patient 1, 5 g per day, after one week
  Speech: significant improvement in speech
MSA-C Patient 2, after 3 weeks, before approximately 10 falls a month
  Falls: falls completely stopped
MSA-C Patient 2, one week after stopping
  Symptoms after stopping medication: deterioration of gait and dizziness
MSA-C Patient 2, two days after stopping, following a further 40 days of treatment
  Symptoms after stopping medication again: progressive deterioration of gait and dizziness
MSA-C Patient 2, up to 5 gram per day, after 3 weeks
  Gait: significant improvement of gait
MSA-C Patient 3, 5 gram per day, after 27 days of treatment
  speed: 106 cm/s
[1]
  Coefficient of variation (temporal): 2.5
  Double stance: 27.1%
  Functional Gait Assessment: 22/30
  Max. speed: 197 cm/s
  Step cycle length: 115 cm
  Track width: 17.5 cm
  cadence: 112 steps/minute
  speed: 106 cm/s
[2]
  Coefficient of variation (temporal): 3.1
  Double stance: 27.3%
  Functional Gait Assessment: 20/30
  Max. speed: 208 cm/s
  Step cycle length: 113 cm
  Track width: 14.6 cm
  cadence: 113 steps/minute
MSA-C Patient 3, after one month of treatment
  Gait analysis (summary): improvement of gait speed, and reductions of track width and gait fluctuations
MSA-C Patient 3, approximately two to three weeks after stopping
  Symptoms after stopping medication: progressive deterioration of gait and dizziness
[3]
  Coefficient of variation (temporal): 3.3
  Double stance: 32.5%
  Functional Gait Assessment: 21/30
  Max. speed: 183 cm/s
  Step cycle length: 87 cm
  Track width: 16.8 cm
  cadence: 101 steps/minute
  speed: 72 cm/s
